Experimental findings from patent publication US8044079B2, “Substituted oxindole derivatives, medicaments containing said derivatives and use thereof” (Abbott GmbH & Co. KG, priority 2005, dated 2011) are described below.

The target of the experiment is T1, human vasopressin V1b receptor (Homo sapiens, UniProt P47901).
T1 construct: expressed in transfected cells; host or cells: CHO-K1 (cell line hV1b_3H2_CHO), membrane preparation
T1 sequence (P47901 1-424): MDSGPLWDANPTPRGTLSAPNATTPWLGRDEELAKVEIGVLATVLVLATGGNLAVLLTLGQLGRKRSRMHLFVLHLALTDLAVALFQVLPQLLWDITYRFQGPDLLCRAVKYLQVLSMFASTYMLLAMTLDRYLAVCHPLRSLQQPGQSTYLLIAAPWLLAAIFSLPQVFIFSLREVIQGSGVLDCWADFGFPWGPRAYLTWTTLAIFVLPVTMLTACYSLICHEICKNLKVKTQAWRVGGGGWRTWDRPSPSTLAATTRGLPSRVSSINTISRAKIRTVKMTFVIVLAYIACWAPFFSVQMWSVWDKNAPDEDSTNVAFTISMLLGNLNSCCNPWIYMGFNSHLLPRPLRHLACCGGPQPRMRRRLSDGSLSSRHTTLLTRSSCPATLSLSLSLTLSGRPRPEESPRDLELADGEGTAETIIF
Put plainly: Vasopressin V1b receptor binding test. As to conditions: membranes of CHO-K1 cells with human V1b receptor, displacement of 1.5 nM 3H-AVP; for compounds with more than one stereogenic center the diastereomer with greater affinity. In a few lines:
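Radioligand displacement on membranes carrying human V1b receptor in 50 mM tris, 10 mM MgCl2, 0.1% BSA, pH 7.4, 2% DMSO final; 60 min at room temperature, nonspecific binding with 1 μM AVP. Free ligand removed by filtration, bound counted by liquid scintillation, Ki from nonlinear regression of triplicates.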

Bounds are passed on as bounds.

In the case of `CCCNCc1ccc(OC)c(C2(N3CCCC3c3ccccn3)C(=O)N(S(=O)(=O)c3ccc(OC)cc3)c3ccc(Cl)cc32)c1` (stereo not shown) [Example 123, 5-Chloro-1-(4-methoxybenzenesulfonyl)-3-(2-methoxy-5-propylaminomethylphenyl)-3-(2-pyridin-2-yl-pyrrolidin-1-yl)-1,3-dihydroindol-2-one], the Ki (in general, the equilibrium dissociation constant of an inhibitor or competing ligand from its target) was 100 to 1000 nM.
As for `COc1ccc(S(=O)(=O)N2C(=O)C(c3cc(CNC(C)C)ccc3F)(N3CCC[C@H]3c3ncco3)c3cc(Cl)ccc32)cc1` (stereo partly drawn) [Example 175, 5-Chloro-3-[2-fluoro-5-(isopropylaminomethyl)phenyl]-1-(4-methoxybenzenesulfonyl)-3-((S)-2-oxazol-2-yl-pyrrolidin-1-yl)-1,3-dihydroindol-2-one], the inhibition constant (Ki) lay in the range of 10 to 100 nM.
As to `COc1ccc(S(=O)(=O)N2C(=O)C(c3cc(CNCC(F)(F)F)ccc3OC)(N3CCC[C@H]3c3ncco3)c3cc(Cl)ccc32)cc1` (stereo partly drawn) [Example 130, 5-Chloro-1-(4-methoxybenzenesulfonyl)-3-{2-methoxy-5-[(2,2,2-trifluoroethylamino)methyl]phenyl}-3-((S)-2-oxazol-2-yl-pyrrolidin-1-yl)-1,3-dihydroindol-2-one], the Ki is 10 to 100 nM.
With `COc1ccc(S(=O)(=O)N2C(=O)C(c3ccc(CN(C)C)cc3OC)(N3CCC[C@H]3c3ncco3)c3cc(C#N)ccc32)cc1` (stereo partly drawn) [Example 41, 5-Cyano-3-(4-dimethylaminomethyl-2-methoxyphenyl)-1-(4-methoxybenzenesulfonyl)-3-((S)-2-oxazol-2-yl-pyrrolidin-1-yl)-1,3-dihydroindol-2-one], the Ki is 10 to 100 nM.
As for `CNCc1cnc(OC)c(C2(N3CCC[C@H]3c3ncco3)C(=O)N(S(=O)(=O)c3ccc(OC)cc3)c3ccc(Cl)cc32)c1` (stereo partly drawn) [Example 167, 5-Chloro-1-(4-methoxybenzenesulfonyl)-3-(2-methoxy-5-methylaminomethylpyridin-3-yl)-3-((S)-2-oxazol-2-yl-pyrrolidin-1-yl)-1,3-dihydroindol-2-one], the figure is under 10 nM; as for `COc1ccc(CN2CCN(C)CC2)cc1C1(N2CCC[C@H]2c2ncco2)C(=O)N(S(=O)(=O)c2ccc(F)cc2)c2ccc(Cl)cc21` (stereo partly drawn) [Example 82, 5-Chloro-1-(4-fluorobenzenesulfonyl)-3-[2-methoxy-5-(4-methylpiperazin-1-ylmethyl)phenyl]-3-((S)-2-oxazol-2-yl-pyrrolidin-1-yl)-1,3-dihydroindol-2-one], 100 to 1000 nM.
For `COc1ccc(S(=O)(=O)N2C(=O)C(c3cc(CN4CCN(CCO)CC4)ccc3OC)(N3C[C@H](F)C[C@H]3c3ncco3)c3cc(C#N)ccc32)cc1` (stereo partly drawn) [Example 229, 5-Cyano-3-((2S,4R)-4-fluoro-2-oxazol-2-yl-pyrrolidin-1-yl)-3-{5-[4-(2-hydroxyethyl)piperazin-1-ylmethyl]-2-methoxyphenyl}-1-(4-methoxybenzenesulfonyl)-1,3-dihydroindol-2-one], the Ki is 10 to 100 nM.
In turn, `COc1ccc(CN2CCN(C)CC2)cc1C1(N2CCC[C@H]2c2ncco2)C(=O)N(S(=O)(=O)c2ccc(OC(F)F)cc2)c2ccc(Cl)cc21` (stereo partly drawn) [Example 145, 5-Chloro-1-(4-difluoromethoxybenzenesulfonyl)-3-[2-methoxy-5-(4-methylpiperazin-1-ylmethyl)phenyl]-3-((S)-2-oxazol-2-yl-pyrrolidin-1-yl)-1,3-dihydroindol-2-one] came in with a Ki of 10 to 100 nM.
Turning to `CCN(C)Cc1ccc(OC)c(C2(N3CCC[C@H]3c3ncco3)C(=O)N(S(=O)(=O)c3ccc(OC)cc3)c3ccc(C#N)cc32)c1` (stereo partly drawn) [Example 48, 5-Cyano-3-{5-[(ethylmethylamino)methyl]-2-methoxyphenyl}-1-(4-methoxybenzenesulfonyl)-3-((S)-2-oxazol-2-yl-pyrrolidin-1-yl)-1,3-dihydroindol-2-one], the Ki lay in the range of 10 to 100 nM.
In turn, `COc1ccc(S(=O)(=O)N2C(=O)C(c3ccc(CNCCO)cc3OC)(N3CCC[C@H]3c3ncco3)c3cc(C#N)ccc32)cc1` (stereo partly drawn) [Example 154, 5-Cyano-3-{4-[(2-hydroxyethylamino)methyl]-2-methoxyphenyl}-1-(4-methoxybenzenesulfonyl)-3-((S)-2-oxazol-2-yl-pyrrolidin-1-yl)-1,3-dihydroindol-2-one] came in with a Ki of under 10 nM.
The figure for `COc1ccc(S(=O)(=O)N2C(=O)C(c3cc(CN4CCNCC4)ccc3OC)(N3CCC[C@H]3c3ncco3)c3cc(Cl)c(Cl)cc32)cc1` (stereo partly drawn) [Example 75, 5,6-Dichloro-1-(4-methoxybenzenesulfonyl)-3-(2-methoxy-5-piperazin-1-ylmethylphenyl)-3-((S)-2-oxazol-2-yl-pyrrolidin-1-yl)-1,3-dihydroindol-2-one] is 10 to 100 nM.
As for `COc1ccc(S(=O)(=O)N2C(=O)C(c3cc(CNCCO)ccc3OC)(N3CCC[C@H]3c3ncco3)c3cc(C#N)ccc32)cc1` (stereo partly drawn) [Example 54, 5-Cyano-3-{5-[(2-hydroxyethylamino)methyl]-2-methoxyphenyl}-1-(4-methoxybenzenesulfonyl)-3-((S)-2-oxazol-2-yl-pyrrolidin-1-yl)-1,3-dihydroindol-2-one], the figure is 10 to 100 nM; as for `COc1ccc(S(=O)(=O)N2C(=O)C(c3cc(CO)ccc3OC)(N3CCC[C@H]3c3ncco3)c3cc(Cl)ccc32)cc1` (stereo partly drawn) [Example 2, 5-Chloro-3-(5-hydroxymethyl-2-methoxyphenyl)-1-(4-methoxybenzenesulfonyl)-3-((S)-2-oxazol-2-yl-pyrrolidin-1-yl)-1,3-dihydroindol-2-one], 10 to 100 nM; as for `CCCNCc1ccc(OC)c(C2(N3CCC[C@H]3c3ncco3)C(=O)N(S(=O)(=O)c3ccc(OC)cc3)c3cc(Cl)c(Cl)cc32)c1` (stereo partly drawn) [Example 68, 5,6-Dichloro-1-(4-methoxybenzenesulfonyl)-3-(2-methoxy-5-propylaminomethylphenyl)-3-((S)-2-oxazol-2-yl-pyrrolidin-1-yl)-1,3-dihydroindol-2-one], 10 to 100 nM.
The figure for `COc1ccc(S(=O)(=O)N2C(=O)C(c3cc(CN4CCCC4)ccc3OC)(N3CCC[C@H]3c3ncco3)c3cc(Cl)c(Cl)cc32)cc1` (stereo partly drawn) [Example 78, 5,6-Dichloro-1-(4-methoxybenzenesulfonyl)-3-(2-methoxy-5-pyrrolidin-1-ylmethylphenyl)-3-((S)-2-oxazol-2-yl-pyrrolidin-1-yl)-1,3-dihydroindol-2-one] is 10 to 100 nM.
For the molecule `CCN1CCN(Cc2ccc(C3(N4CCC[C@H]4c4ncco4)C(=O)N(S(=O)(=O)c4ccc(C#N)cc4)c4ccc(Cl)cc43)c(OC)c2)CC1` (stereo partly drawn) [Example 152, 5-Chloro-3-[4-(4-ethylpiperazin-1-ylmethyl)-2-methoxyphenyl]-3-((S)-2-oxazol-2-yl-pyrrolidin-1-yl)-1-(4-cyanobenzenesulfonyl)-1,3-dihydroindol-2-one], the Ki is under 10 nM.
As for `COc1ccc(S(=O)(=O)N2C(=O)C(c3cc(CN4CCCCC4)ccc3OC)(N3CCC[C@H]3c3ncco3)c3ccc(Cl)cc32)cc1` (stereo partly drawn) [Example 40, 6-Chloro-1-(4-methoxybenzenesulfonyl)-3-(2-methoxy-5-piperidin-1-ylmethylphenyl)-3-((S)-2-oxazol-2-yl-pyrrolidin-1-yl)-1,3-dihydroindol-2-one], the figure is 100 to 1000 nM.
The figure for `CCOc1ccc(S(=O)(=O)N2C(=O)C(c3cc(CN4CCN(C)CC4)ccc3OC)(N3CCC[C@H]3c3ncco3)c3cc(Cl)ccc32)cc1` (stereo partly drawn) [Example 80, 5-Chloro-1-(4-ethoxybenzenesulfonyl)-3-[2-methoxy-5-(4-methylpiperazin-1-ylmethyl)phenyl]-3-((S)-2-oxazol-2-yl-pyrrolidin-1-yl)-1,3-dihydroindol-2-one] is 10 to 100 nM.
Molecule `COc1ccc(S(=O)(=O)N2C(=O)C(c3ccc(CN(C)C(C)C)cc3OC)(N3CCC[C@H]3c3ncco3)c3cc(Cl)ccc32)cc1` (stereo partly drawn) [Example 21, 5-Chloro-3-{4-[(isopropylmethylamino)methyl]-2-methoxyphenyl}-1-(4-methoxybenzenesulfonyl)-3-((S)-2-oxazol-2-yl-pyrrolidin-1-yl)-1,3-dihydroindol-2-one] yielded an inhibitory constant (Ki) of under 10 nM.
The figure for `COc1ccc(S(=O)(=O)N2C(=O)C(c3cc(CNC(C)C)ccc3OC)(N3CCC[C@H]3c3ncco3)c3cc(C#N)ccc32)cc1` (stereo partly drawn) [Example 52, 5-Cyano-3-[5-(isopropylaminomethyl)-2-methoxyphenyl]-1-(4-methoxybenzenesulfonyl)-3-((S)-2-oxazol-2-yl-pyrrolidin-1-yl)-1,3-dihydroindol-2-one] is 10 to 100 nM.
Regarding `COCCN(C)Cc1ccc(C2(N3CCC[C@H]3c3ncco3)C(=O)N(S(=O)(=O)c3ccc(OC)cc3)c3ccc(Cl)cc32)c(OC)c1` (stereo partly drawn) [Example 22, 5-Chloro-1-(4-methoxybenzenesulfonyl)-3-(2-methoxy-4-{[(2-methoxyethyl)methylamino]methyl}phenyl)-3-((S)-2-oxazol-2-yl-pyrrolidin-1-yl)-1,3-dihydroindol-2-one], the Ki lay within 10 to 100 nM.
The figure for `CNCc1ccc(C2(N3CCC[C@H]3c3ncco3)C(=O)N(S(=O)(=O)c3ccc(OC)cc3)c3ccc(Cl)cc32)c(OC)c1` (stereo partly drawn) [Example 16, 5-Chloro-1-(4-methoxybenzenesulfonyl)-3-(2-methoxy-4-methylaminomethylphenyl)-3-((S)-2-oxazol-2-yl-pyrrolidin-1-yl)-1,3-dihydroindol-2-one] is under 10 nM.
